Test results reported in patent US20140050778A1, “NUCLEIC ACID BINDING COMPOUNDS, METHODS OF MAKING, AND USE THEREOF” (UNIVERSITY OF ROCHESTER, priority 2010, published 2014).

Assays:
[1] = test system: C1-S cells; experiment: WST-1 viability; type: cell-based, mouse; conditions: C1-S cells at the assay concentrations
Experimental: The ability of selected compounds to inhibit the formation of CUG^exp RNA-MBNL1 complexes in mouse myoblasts was then evaluated. For this study, C2C12 mouse myoblasts engineered to stably express a firefly luciferase transcript with or without ˜800 uninterrupted CUG repeats in an hDMPK 3′UTR (clones C5-14 and C1-S, respectively) were used. Cells were grown in 100 μl growth media in 96-well plates to ˜10% confluency. Compound was added at various concentrations in triplicate to both C1-S and C5-14 cultures, and incubated for 3 days. Culture media was replaced with fresh media containing 1% WST-1 reagent (Roche). After ˜15-20 minutes of incubation, the WST-1 containing media was transferred to a clear 96-well plate, and the absorbances at 450 nm and 690 nm measured with a PerkinElmer EnVision Plate Reader. Cells were gently rinsed (1×PBS) before incubation at −20° C. in 100 μl 1X Passive Lysis Buffer (Promega) for 10 minutes. Immediately before luminescence detection, 20 μl of each lysate was mixed with 50 μl of Luciferase Assay Reagent (Promega) in a fresh opaque-white 96-well plate. Luminescence values were normalized for well-to-well variations in viable cell numbers by dividing by the corresponding (A450 nm-A690 nm) values of the WST-1 containing media.

[2] = test system: C5-14 C2C12 mouse myoblasts ((CUG)800 RNA-MBNL1 complexes); experiment: Firefly luciferase reporter with ~800 CUG repeats in hDMPK 3'UTR; type: cell-based; conditions: C5-14 myoblasts, 3 days; compound 4 0-100 μM, compound 11 0-200 μM
Experimental: The ability of selected compounds to inhibit the formation of CUG^exp RNA-MBNL1 complexes in mouse myoblasts was then evaluated. […] Cells were grown in 100 μl growth media in 96-well plates to 10% confluency. […] Culture media was replaced with fresh media containing 1% WST-1 reagent (Roche). After 15-20 minutes of incubation, the WST-1 containing media was transferred to a clear 96-well plate, and the absorbances at 450 nm and 690 nm measured with a PerkinElmer EnVision Plate Reader. Cells were gently rinsed (1×PBS) before incubation at -20° C. in 100 μl 1X Passive Lysis Buffer (Promega) for 10 minutes. Immediately before luminescence detection, 20 μl of each lysate was mixed with 50 μl of Luciferase Assay Reagent (Promega) in a fresh opaque-white 96-well plate. Luminescence values were normalized for well-to-well variations in viable cell numbers by dividing by the corresponding (A450 nm-[…] nm) values of the WST-1 containing media. […] Thus, CUG^exp binding compounds are capable of releasing the sequestered mRNA transcripts into the cytoplasm for translation.

[3] = test system: yeast tRNA; experiment: Fluorescence titration control; type: binding; conditions: yeast tRNA titrated into a mixture of compounds 4 and 5
Experimental: The benzo[g]quinoline moiety is fluorescent, with excitation and emission maxima at 362 nm and 439 nm respectively in methanol. Fluorescence titration binding measurements were performed on a Cary Eclipse fluorescence spectrophotometer using a 10 mm path-length semimicro quartz fluorescence cell with 400 μL sample holding capacity. Absorbance measurements were carried out on a UV-Visible spectrophotometer (Shimadzu, UV-1601PC) using a 1 mL (1 cm path-length) quartz cell. Spectroscopic grade anhydrous methanol used in the measurement of relative quantum yield of the 2-ethyl benzo[g]quinoline carboxylic acid was purchased from Alfa Aesar and was used without further purification. For these measurements, known procedures were used (Lee and Grissom, “Design, Synthesis, and Characterization of Fluorescent Cobalamin Analogues with High Quantum Efficiencies,” Org. Lett. 11:2499-2502 (2009); Joseph R. Lakowicz, Principles of Fluorescence Spectroscopy, 2nd edition (Kluwer Academic/Plenum Publishers, 1999), which are hereby incorporated by reference in their entirety). Briefly, RNA (10 μM stock) in HBS-N buffer was titrated into a solution of 1 μM compound in HBS-N. After each addition of RNA, ten minutes were allowed for equilibration before recording the change in fluorescence at 468.5 nm. […]
Selected equilibrium affinities for (CUG)10 were confirmed by fluorescence titration. […]

[4] = test system: human fibroblasts; experiment: MTT toxicity assay; type: cell-based; conditions: compounds 4 and 5 measured as a mixture, concentrations up to 500 μM
Experimental: For toxicity studies, mouse myoblasts or human fibroblasts were plated in a 96-well tissue culture plate in DMEM (10% fetal bovine serum, 100 units/ml penicillin, […]) and allowed to grow to approximately 80% confluence at 37° C. under CO2. Varying compound concentrations (up to 1 mM) were incubated with cells (48 hours, 37° C.). Media was then removed, and 3-(4,5-dimethylthiazol-2-yl)-2,5-diphenyltetrazolium bromide (“MTT”) in media was added to each well and incubated at 37° C. for 4 h. After removal of the MTT media, isopropanol (100 pp was added, and absorbance was measured at 600 nm on a Modulus microplate reader (Turner Biosystems).
SPR and fluorescence titration experiments, performed using the protocol described in Examples 3 and 4 above, except using as the target a highly conserved RNA sequence responsible for regulating the production of the Gag-Pol polyprotein via a −1 ribosomal frameshift, which occurs along a “slippery sequence” in gag-pol mRNA (SEQ ID NO: 7). This “frameshift stimulatory sequence” (or “HIV-1 FSS”) consists of an upper stemloop and a lower stem, separated by a purine bulge in the most common types of HIV (FIG. 19). For the fluorescent titration experiments, the upper stemloop of SEQ ID NO: 7 was employed. Cell uptake and toxicity studies were carried out using human fibroblasts according to Example 5 above.

CCc1nc2cc3ccccc3cc2cc1C(=O)N1CCC[C@H]1C(=O)N[C@@H](C/C=C\C[C@H](NC(=O)[C@@H]1CCCN1C(=O)c1cc2cc3ccccc3cc2nc1CC)C(=O)N[C@@H](CCCCN)C(=O)NCCCN)C(=O)N[C@@H](CCCCN)C(=O)NCCCN [Compound 4]
WST-1 viability [1]: no observable toxicity | luciferase activity [2]: concentration-dependent increases in luciferase activity | binding of yeast tRNA [3]: No binding | toxicity (MTT) [4]: no significant toxicity

CCc1nc2cc3ccccc3cc2cc1C(=O)N1CCC[C@H]1C(=O)N[C@@H](C/C=C/C[C@H](NC(=O)[C@@H]1CCCN1C(=O)c1cc2cc3ccccc3cc2nc1CC)C(=O)N[C@@H](CCCCN)C(=O)NCCCN)C(=O)N[C@@H](CCCCN)C(=O)NCCCN [Compound 5]
binding of yeast tRNA [3]: No binding | toxicity (MTT) [4]: no significant toxicity
